Reference: patent publication US20260159474A1, “Aminoindane Compounds and Compositions and Methods of Their Therapeutic Use” (Solvonis Therapeutics Ireland Holdings Limited, priority 2021, published 2026)
Where two headings read alike, the source gives them in different places.

Columns and labels:
human DAT = target: T1, human DAT (Homo sapiens, UniProt Q01959); experiment: DAT uptake SPA in hDAT-CHO cells; type: cell-based
T1 construct: expressed in transfected cells; host or cells: CHO (hDAT-CHO)
Description: Methods-Evaluation of Monoamine Uptake/Transporter Inhibition: Inhibitory activity on DAT function was measured using an uptake assay in a recombinant CHO cell line stably expressing human DAT (hDAT-CHO). Potency was measured in terms of pIC50 by testing for inhibition of [3H]-dopamine uptake in hDAT-CHO cells in a multiwell format SPA.
Briefly, on experiment days, hDAT-CHO cells were detached using Versene and added at a density of approximately 300,000 cells/mL to the SPA Mixture, which contains the following components in Assay Buffer (20 mM HEPES, 145 mM NaCl, 5 mM KCl, 2 mM CaCl2), 1 mM MgCl2, 5.5 mM glucose, 0.01% Pluronic F127, pH 7.3): 0.75 mg/mL SPA Imaging beads (RPNQ0001, PerkinElmer), 10 μM pargyline and 80 nM of [3H]-dopamine (NET673, PerkinEImer). The SPA Mixture was added 20 μL/well to 384 well plates containing 0.1 μL/well of test compound in neat DMSO (11 points of 1:5 serial dilution, 0.5% DMSO final) or 0.1 μL of DMSO (total uptake) or 0.1 μL of the standard inhibitor indatraline (at 1 μM final concentration, as nonspecific uptake). Plates were sealed with a Top-seal A and read using a Microbeta counter (PerkinElmer) after 45 minutes of incubation at room temperature. […] The SPA Mixture was added 20 μL/well to 384 well plates containing 0.1 μL/well of test compound in neat DMSO (11 points of 1:5 serial dilution, 0.5% DMSO final), 0.1 μL of DMSO (total uptake), or 0.1 μL of the standard inhibitor indatraline (1 μM, nonspecific uptake). Plates were sealed with a Top-seal A and read using a Microbeta counter (PerkinElmer) after 120 minutes of incubation at room temperature.
For both tests, the raw experimental data (cpm) were elaborated for the determination of pIC50/IC50 values as % inhibition of specific uptake.

[1] = tested on: DA release in rat synaptosomes; experiment: Dopamine release assay in rat striatal synaptosomes; type: biochemical; details: % of maximal release with 50 μM MDMA, n=2
Description: Methods-Evaluation of Monoamine Release: The potency of therapeutic compounds for stimulating DA release was measured by an endpoint release filtration assay in a 96-well format using rat synaptosomes, essentially as described by Sandtner et al. (Mol Pharmacol., 2016; 89(1):165-75.) and Baumann et al. (Neuropsychopharmacol, 2013; 38:552-562.) with some variations. One male rat was euthanized, and striatum/cortex regions were dissected over ice. The striatum portions were weighed and put in a glass tube containing ice-cold 0.32 M sucrose (dilution 1:24 w/v) for homogenization, while the frontal cortex tissue was diluted in ice-cold 0.32 M sucrose, 1:20 w/v. Tissues were homogenized and centrifuged for 10 mins at 1000×g. The two supernatants from striatum and cortex (crude synaptosomes) were retained on ice until use.
Test compounds were then serially diluted 1:4 in neat DMSO as concentration-response curves (CRC) of 11 points. To each well of a 2-mL 96 deep-well plate (Whatman UNIPLATE 96 well) were added: 2 μL of a concentration-response curve (CRC) of test compounds or 2 μL of DMSO (no-release condition) or 2 μL of MDMA 10 mM solution (final 50 μM, for maximal release), followed by 200 μL/well of complete Krebs-phosphate buffer (126 mM NaCl, 2.4 mM KCl, 0.83 mM CaCl2), 0.8 mM MgCl2, 0.5 mM KH2PO4, 0.5 mM Na2SO4, 11.1 mM glucose, 0.05 mM pargyline, 1 mg/mL ascorbic acid, freshly added, pH 7.4), containing 1 μM reserpine to block vesicular uptake of substrate. Desipramine (100 nM) and citalopram (100 nM) were also added to the release assay buffer in order to inhibit NET and SERT uptake, respectively. The final compound dilution, then, was 1:200 in 0.5% DMSO.
3H-Dopamine was added to the tube containing the crude striatal synaptosomes preparation, diluted 1:20 (v/v) in complete Krebs-phosphate buffer, and was incubated at RT and gently mixed for 60 minutes. Then, 200 μL/well of 3H-DA loaded synaptosomes were dispensed to the compound plate (final 400 μL/well), and the release reaction proceeded for an additional 15 minutes at RT. The release was terminated by vacuum filtration and washing three times with 1 mL of saline solution (NaCl 0.9%) at RT. The retained radioactivity was counted in a scintillation counter after the addition of 50 μL/well Microscint-20.
The raw data (cpm) from residual radioactivity onto the filter were elaborated for the determination of pEC50/EC50 values. Specifically, the compound effect was expressed as the percent of maximal release obtained with 50 μM MDMA (100% release) in comparison to vehicle (0.5% DMSO, 0% release). Both MDMA and D-amphetamine in CRC were used as internal controls in each release experiment. In each plate, for both 0% and 100% of release, the signal window was monitored and Z′ calculations were determined using the raw data of four replicates. 5-HT release was calculated in an identical fashion, except that 5 nM 3H-serotonin was added to crude cortex synaptosomes preparation diluted 1:13 (v/v) in complete Krebs-phosphate buffer containing 1 μM Reserpine, 100 nM GBR12909 and 100 nM nomifensine to block vesicular, DAT, and NET uptake, respectively. Synaptosomes were then loaded with 3H-5HT for 60 minutes at RT. After dispensing loaded synaptosomes onto a compound plate (200 μL/well), the release reaction proceeded for an additional 15 minutes. Stop by filtration, counting, and data elaboration were performed as described for DA release. Compounds were tested in duplicate (n=2).

[2] = [3H]-dopamine uptake, hDAT-CHO cells, read-out: DAT Uptake SPA (pIC50) (converted)

T1 sequence (Q01959 whole entry): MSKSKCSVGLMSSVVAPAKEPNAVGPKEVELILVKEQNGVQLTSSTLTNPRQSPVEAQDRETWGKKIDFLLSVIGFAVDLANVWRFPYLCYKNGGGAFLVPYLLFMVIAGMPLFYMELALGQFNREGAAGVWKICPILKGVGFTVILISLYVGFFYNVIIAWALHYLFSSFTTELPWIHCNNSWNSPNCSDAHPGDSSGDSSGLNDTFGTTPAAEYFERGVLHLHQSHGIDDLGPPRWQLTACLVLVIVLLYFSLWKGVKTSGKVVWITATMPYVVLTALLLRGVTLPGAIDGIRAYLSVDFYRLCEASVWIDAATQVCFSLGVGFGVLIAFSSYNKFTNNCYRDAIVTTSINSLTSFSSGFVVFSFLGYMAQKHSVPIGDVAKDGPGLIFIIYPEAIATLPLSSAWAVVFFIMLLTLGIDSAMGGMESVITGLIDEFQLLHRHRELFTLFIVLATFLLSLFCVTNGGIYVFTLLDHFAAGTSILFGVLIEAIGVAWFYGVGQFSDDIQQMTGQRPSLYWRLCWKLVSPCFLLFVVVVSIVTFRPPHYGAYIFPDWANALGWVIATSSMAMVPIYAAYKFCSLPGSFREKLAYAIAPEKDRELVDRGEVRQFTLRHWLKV

Structure (SMILES)	IC50 (human DAT; [2]) [µM]	DA Release (pEC50) [1]	DAT Uptake SPA (pIC50) (human DAT; [3H]-dopamine uptake, hDAT-CHO cells)	IC50 (human DAT) [µM]
COC(=O)c1cc2c(cc1OC)CC(N)C2 (stereo not drawn) [CMP-401]	100	<4.0		
COC(=O)COc1ccc2c(c1)CC(N)C2 (stereo not drawn) [CMP-402]	100	<4.0		
COC(=O)c1ccc2c(c1)CC(N)C2 (stereo not drawn) [CMP-405, 2-aminoindane-5-methylcarboxylate]	20	5.6		
CNC(C)Cc1ccc2c(c1)OCO2 (stereo not drawn) [MDMA]		6.6	5.7	
COc1ccc2c(c1)CC(N)C2 (stereo not drawn) [MEAI, 5-methoxy-2-aminoindane]		5.4		50.1
COc1cc2c(cc1C)CC(N)C2 (stereo not drawn) [MMAI, 5-methoxy-6-methyl-2-aminoindane]		4.6		50.1
